According to patent US10710994B2, “Oxadiazole transient receptor potential channel inhibitors” (Genentech, Inc., priority 2018, dated 2020):
pIC50: −log10 of the molar value.

Target: human TRPA1 channel (Homo sapiens (Human), UniProt O75762)
Assay: hTRPA1 CHO Ca2+ FLIPR Tetra assay: block of cinnamaldehyde induced calcium influx
Format: cell-based
Details: CHO cells expressing TRPA1, Hill coefficient fixed to 1.5
Method: CHO cells expressing TRPA1 were plated into 384-well plates, incubated overnight at 37° C., and loaded with BD calcium indicator dye for 1 hr at 37° C. followed by 15 minutes at room temperature. The assay buffer was Hank's Balanced Salt Solution (HBSS) containing 20 mM HEPES (pH readjusted to 7.4) along with 0.02% BSA.
Following dye load and plate cool down, compounds were added to the cells using FLIPR Tetra. Plates were then incubated with compounds for 10 minutes or 90 minutes at room temperature prior to adding agonist. Following this incubation, about an EC80 concentration of cinnamaldehyde […] was added to active the channels and block of cinnamaldehyde induced calcium influx was measured.
Fixing the Hill coefficient will generally reduce variability of the IC50 determination. The IC50 results were individually examined to make sure the MIN and MAX points were set correctly prior to validation of the results.

[1] = hTRPA1 IC50 10 min, 10 minutes incubation with compound before cinnamaldehyde (about EC80)
[2] = hTRPA1 IC50 90 min, 90 minutes incubation with compound before cinnamaldehyde (about EC80)

human TRPA1 channel, sequence (O75762 whole entry): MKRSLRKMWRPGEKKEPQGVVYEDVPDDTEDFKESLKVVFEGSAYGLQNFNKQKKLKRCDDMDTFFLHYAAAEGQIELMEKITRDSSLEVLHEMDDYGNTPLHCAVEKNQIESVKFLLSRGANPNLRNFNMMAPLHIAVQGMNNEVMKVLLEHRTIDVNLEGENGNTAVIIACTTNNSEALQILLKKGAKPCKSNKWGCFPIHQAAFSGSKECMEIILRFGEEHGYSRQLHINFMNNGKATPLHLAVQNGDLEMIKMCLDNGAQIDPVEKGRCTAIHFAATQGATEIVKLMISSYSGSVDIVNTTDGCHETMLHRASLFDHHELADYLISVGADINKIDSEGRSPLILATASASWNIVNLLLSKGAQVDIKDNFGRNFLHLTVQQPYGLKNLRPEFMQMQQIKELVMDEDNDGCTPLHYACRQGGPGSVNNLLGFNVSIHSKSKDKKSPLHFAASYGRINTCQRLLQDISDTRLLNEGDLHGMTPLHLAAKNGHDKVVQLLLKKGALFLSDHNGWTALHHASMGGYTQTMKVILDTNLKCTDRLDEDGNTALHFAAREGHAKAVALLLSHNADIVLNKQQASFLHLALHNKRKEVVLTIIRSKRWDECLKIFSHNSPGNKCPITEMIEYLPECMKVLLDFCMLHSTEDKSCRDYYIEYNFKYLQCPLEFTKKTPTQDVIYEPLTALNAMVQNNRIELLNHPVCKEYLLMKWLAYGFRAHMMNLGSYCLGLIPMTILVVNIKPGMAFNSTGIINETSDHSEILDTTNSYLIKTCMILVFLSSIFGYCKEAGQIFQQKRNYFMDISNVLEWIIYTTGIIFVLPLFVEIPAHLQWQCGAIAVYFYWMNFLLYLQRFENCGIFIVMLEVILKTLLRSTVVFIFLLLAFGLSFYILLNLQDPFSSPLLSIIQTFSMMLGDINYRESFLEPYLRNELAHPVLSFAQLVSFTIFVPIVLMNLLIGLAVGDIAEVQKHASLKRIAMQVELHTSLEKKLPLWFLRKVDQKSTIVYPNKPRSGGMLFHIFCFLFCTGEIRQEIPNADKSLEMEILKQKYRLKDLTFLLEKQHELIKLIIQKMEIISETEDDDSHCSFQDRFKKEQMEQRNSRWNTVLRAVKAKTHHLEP

Structure (SMILES) | pIC50 [1] | pIC50 [2]
Cc1cnn2ncn(Cc3nc([C@@H]4CO[C@@H](c5ccc(Cl)cn5)C4)no3)c(=O)c12 (racemic) [Example 72, Racemic 3-((3-((3R,5R)-5-(5-chloropyridin-2-yl)tetrahydrofuran-3-yl)-1,2,4-oxadiazol-5-yl)methyl)-5-methylpyrazolo[5,1-f] [1,2,4]triazin-4(3H)-one] | 6.66 | 6.82
Cc1nc(Br)n2ncn(Cc3nc([C@@H]4CO[C@@H](c5ccc(F)cc5)C4)no3)c(=O)c12 (racemic) [Example 90, 7-bromo-5-methyl-3-[[3-[rac-(3R,5R)-5-(4-fluorophenyl)tetrahydro-furan-3-yl]-1,2,4-oxadiazol-5-yl]methyl] imidazo[5,1-f][1,2,4] triazin-4-one] | – | 7.48
Cc1nc(N2CCNCC2)n2ncn(Cc3nc([C@@H]4CO[C@@H](c5ccc(Cl)cc5)C4)no3)c(=O)c12 (racemic) [Example 91, formic acid; 5-methyl-7-piperazin-1-yl-3-[[3-[rac-(3R,5R)-5-(4-chlorophenyl)tetrahydro-furan-3-yl]-1,2,4-oxadiazol-5-yl]methyl] imidazo[5,1-f][1,2,4]triazin-4-one] | – | 6.48
Cc1nc(N2CCN(C)CC2)n2ncn(Cc3nc([C@@H]4CO[C@@H](c5ccc(Cl)cc5)C4)no3)c(=O)c12 (racemic) [Example 92, 5-methyl-7-(4-methylpiperazin-1-yl)-3-[[3-[rac-(3R,5R)-5-(4-chlorophenyl)tetrahydro-furan-3-yl]-1,2,4-oxadiazol-5-yl]methyl]imidazo[5,1-f][1,2,4]triazin-4-one] | – | 6.77
Cc1nc(Cl)n2ncn(Cc3nc([C@@H]4CO[C@@H](c5ccc(Cl)cc5)C4)no3)c(=O)c12 (racemic) [Example 93, 7-chloro-5-methyl-3-[[3-[rac-(3R,5R)-5-(4-chlorophenyl)tetrahydro-furan-3-yl]-1,2,4-oxadiazol-5-yl]methyl] imidazo[5,1-f][1,2,4] triazin-4-one] | – | 7.89
O=c1c2cccc(=O)n2ccn1Cc1nc([C@@H]2CO[C@@H](c3ccc(F)cc3)C2)no1 (racemic) [Example 94, 2-[[3-[rac-(3R,5R)-5-(4-fluorophenyl)tetrahydro-furan-3-yl]-1,2,4-oxadiazol-5-yl]methyl]pyrido[1,2-a] pyrazine-1,6-dione] | – | 7.92
O=c1c2c(Cl)ccnc2ncn1Cc1nc([C@@H]2CO[C@@H](c3ccc(F)cc3)C2)no1 (racemic) [Example 95, 5-chloro-3-[[3-[rac-(3R,5R)-5-(4-fluorophenyl)tetrahydrofuran-3-yl]-1,2,4-oxadiazol-5-yl]methyl] pyrido[2,3-d]pyrimidin-4-one] | – | 7.82
Cc1nn(C)c2ncn(Cc3nc([C@@H]4CO[C@@H](c5ccc(Cl)cc5)C4)no3)c(=O)c12 (racemic) [Example 96, 1,3-dimethyl-5-[[3-[rac-(3R,5R)-5-(4-chlorophenyl)tetrahydro-furan-3-yl]-1,2,4-oxadiazol-5-yl]methyl] pyrazolo[3,4-d]pyrimidin-4-one] | – | 7.48
Cc1nc(C)n2ncn(Cc3nc([C@@H]4CO[C@@H](c5ccc(Cl)cc5)C4)no3)c(=O)c12 (racemic) [Example 97, 5,7-dimethyl-3-[[3-[rac-(3R,5R)-5-(4-chlorophenyl)tetrahydro-furan-3-yl]-1,2,4-oxadiazol-5-yl]methyl] imidazo[5,1-f][1,2,4] triazin-4-one] | – | 7.35
O=c1c2cccc(=O)n2ccn1Cc1nc([C@@H]2CO[C@@H](c3ccc(Cl)cc3)C2)no1 (racemic) [Example 98, 2-[[3-[rac-(3R,5R)-5-(4-chlorophenyl)tetrahydro-furan-3-yl]-1,2,4-oxadiazol-5-yl]methyl] pyrido[1,2-a]pyrazine-1,6-dione] | 8.19 | 8.40
O=c1ccn2c(=O)n(Cc3nc([C@@H]4CO[C@@H](c5ccc(Cl)cc5)C4)no3)ccc2n1 (racemic) [Example 99, 7-[[3-[rac-(3R,5R)-5-(4-chlorophenyl)tetrahydro-furan-3-yl]-1,2,4-oxadiazol-5-yl]methyl]pyrimido[1,6-a]pyrimidine-2,6-dione] | 7.81 | 8.14
Cc1cccc2nn(Cc3nc([C@@H]4CO[C@@H](c5ccc(Cl)cc5)C4)no3)c(=O)n12 (racemic) [Example 100, 5-methyl-2-[[3-[rac-(3R,5R)-5-(4-chlorophenyl)tetrahydro-furan-3-yl]-1,2,4-oxadiazol-5-yl]methyl]-[1,2,4]triazolo[4,3-a] pyridin-3-one] | 6.82 | 6.85
Cc1nc(N2CCOCC2)n2ncn(Cc3nc([C@@H]4CO[C@@H](c5ccc(Cl)cc5)C4)no3)c(=O)c12 (racemic) [Example 101, 5-methyl-7-morpholino-3-[[3-[rac-(3R,5R)-5-(4-chlorophenyl)tetrahydro-furan-3-yl]-1,2,4-oxadiazol-5-yl]methyl]imidazo[5,1-f][1,2,4]triazin-4-one] | 6.91 | 7.02
Cn1cncc1C(=O)NCc1nc([C@H]2CO[C@H](c3ccc(Cl)cc3)C2)no1 (racemic) [Example 102, 3-methyl-N-[[3-[rac-(3S,5S)-5-(4-chlorophenyl)tetrahydro-furan-3-yl]-1,2,4-oxadiazol-5-yl]methyl]imidazole-4-carboxamide] | 7.41 | 7.64
Cc1nc(N(C)C)n2ncn(Cc3nc([C@@H]4CO[C@@H](c5ccc(Cl)cc5)C4)no3)c(=O)c12 (racemic) [Example 105, 7-(dimethylamino)-5-methyl-3-[[3-[rac-(3R,5R)-5-(4-chlorophenyl)tetrahydro-furan-3-yl]-1,2,4-oxadiazol-5-yl]methyl]imidazo[5,1-f][1,2,4]triazin-4-one] | 7.38 | 7.23
Cn1nnc2ccn(Cc3nc([C@@H]4CO[C@@H](c5ccc(F)cc5)C4)no3)c(=O)c21 (racemic) [Example 106, 3-methyl-5-[[3-[rac-(3R,5R)-5-(4-fluorophenyl)tetrahydro-furan-3-yl]-1,2,4-oxadiazol-5-yl]methyl] triazolo[4,5-c]pyridin-4-one] | 8.16 | 8.25
Cc1nc(Br)n2ncn(Cc3nc([C@@H]4CO[C@@H](c5ccc(Cl)cc5)C4)no3)c(=O)c12 (racemic) [Example 107, 7-bromo-5-methyl-3-[[3-[rac-(3R,5R)-5-(4-chlorophenyl)tetrahydro-furan-3-yl]-1,2,4-oxadiazol-5-yl]methyl] imidazo[5,1-f][1,2,4] triazin-4-one] | 9.10 | 9.52
Nc1nccc2c(=O)n(Cc3nc([C@@H]4CO[C@@H](c5ccc(Cl)cc5)C4)no3)cnc12 (racemic) [Example 108, 8-amino-3-[[3-[rac-(3R,5R)-5-(4-chlorophenyl)tetrahydro-furan-3-yl]-1,2,4-oxadiazol-5-yl]methyl]pyrido[3,4-d] pyrimidin-4-one] | 7.11 | 7.24
Cc1nc2nc(N)n(C)c2c(=O)n1Cc1nc([C@@H]2CO[C@@H](c3ccc(Cl)cc3)C2)no1 (racemic) [Example 113, 8-amino-2,7-dimethyl-1-[[3-[rac-(3R,5R)-5-(4-chlorophenyl)tetrahydro-furan-3-yl]-1,2,4-oxadiazol-5-yl]methyl] purin-6-one] | 6.91 | 7.85
Cc1nc2nc(N)n(Cc3nc([C@@H]4CO[C@@H](c5ccc(Cl)cc5)C4)no3)c(=O)c2n1C (racemic) [Example 152, 2-amino-7,8-dimethyl-1-[[3-[rac-(3R,5R)-5-(4-chlorophenyl)tetrahydro-furan-3-yl]-1,2,4-oxadiazol-5-yl]methyl]purin-6-one] | 7.37 | 8.21
Cn1c(=O)oc2ncn(Cc3nc([C@@H]4CO[C@@H](c5ccc(Cl)cc5)C4)no3)c(=O)c21 (racemic) [Example 153, 1-methyl-6-[[3-[rac-(3R,5R)-5-(4-chlorophenyl)tetrahydro-furan-3-yl]-1,2,4-oxadiazol-5-yl]methyl] oxazolo[5,4-d] pyrimidine-2,7-dione] | 8.20 | 8.74
Nc1nc2ncsc2c(=O)n1Cc1nc([C@@H]2CO[C@@H](c3ccc(F)cc3)C2)no1 (racemic) [Example 154, 5-amino-6-[[3-[rac-(3R,5R)-5-(4-fluorophenyl)tetrahydro-furan-3-yl]-1,2,4-oxadiazol-5-yl]methyl]thiazolo[4,5-d]pyrimidin-7-one] | – | 8.64
Cn1nnc2nc(N)n(Cc3nc([C@@H]4CO[C@@H](c5ccc(Cl)cc5)C4)no3)c(=O)c21 (racemic) [Example 156, 5-amino-1-methyl-6-[[3-[rac-(3R,5R)-5-(4-chlorophenyl)tetrahydro-furan-3-yl]-1,2,4-oxadiazol-5-yl]methyl]triazolo[4,5-d]pyrimidin-7-one] | 7.79 | 8.68
Cn1cnc2nc(N)n(Cc3nc([C@@H]4CO[C@@H](c5ccc(F)cc5)C4)no3)c2c1=O (racemic) [Example 157, 8-amino-1-methyl-7-[[3-[rac-(3R,5R)-5-(4-fluorophenyl)tetrahydro-furan-3-yl]-1,2,4-oxadiazol-5-yl]methyl]purin-6-one] | 6.33 | 7.06
Nc1nc2ncsc2c(=O)n1Cc1nc([C@@H]2CO[C@@H](c3ccc(Cl)cc3)C2)no1 (racemic) [Example 158, 5-amino-6-[[3-[rac-(3R,5R)-5-(4-chlorophenyl)tetrahydro-furan-3-yl]-1,2,4-oxadiazol-5-yl]methyl]thiazolo[4,5-d]pyrimidin-7-one] | 8.24 | 8.85
